Experimental data reported in patent US6894043B1, “Benzothiadiazine derivatives, preparation method and pharmaceutical compositions containing same” (Les Laboratoires Servier, priority 1999, dated 2005).

System: AMPA receptors
Assay: Excitatory fluxes induced by AMPA in Xenopus oocytes (2-electrode voltage-clamp)
Assay type: cell-based
Settings: AMPA 30 μM; Xenopus oocytes injected with rat cortex poly(A+) mRNA; 20-24° C.
Method: mRNAs are prepared from cerebral cortex of male Wistar rat by the guanidium thiocyanate/phenol/chloroform method. The poly(A^+)mRNAs are isolated by chromatography on oligo-dT cellulose and injected with 50 ng per oocyte. The oocytes are left for 2 to 3 days' incubation at 10° C. to enable expression of the receptors and are then stored at 8-10° C.
Electrophysiological recording is carried out in a plexiglass chamber at 20-24° C. in an OR2 medium (J. Exp. Zool., 1973, 184, 321-334) by the 2-electrode “voltage-clamp” method, with a 3rd electrode being placed in the bath to serve as reference.
All the compounds are administered via the incubation medium and the electric current is measured at the end of the period of administration. AMPA is used in a concentration of 30 μM. For each compound studied, there is determined the concentration that doubles (EC2X) or quintuples (EC5X) the intensity of the flux induced by AMPA alone (50 to 100 nA).

Row | SMILES | EC2X (concentration that doubles the intensity of the flux induced by AMPA alone) [µM] | EC5X (concentration that quintuples the intensity of the flux induced by AMPA alone) [µM]
1 | CCN1CNS(=O)(=O)c2cc(I)ccc21 [Example 4, 4-Ethyl-7-iodo-2,3-dihydro-4H-1,2,4-benzothiadiazine 1,1-dioxide] | 95 ± 31 | >300
2 | CCN1CNS(=O)(=O)c2cc(Br)ccc21 [Example 3, 7-Bromo-4-ethyl-2,3-dihydro-4H-1,2,4-benzothiadiazine 1,1-dioxide] | 29 ± 6 | 78 ± 16
